The source made the active and inactive calls. No cut-off for these calls is given here.
Key:
[1] = target: Protein kinase C (PKC) (Homo sapiens) (UniProt O94806+P41743+P17252+P05129+Q05655+P05771+Q05513+Q02156+P24723+Q15139+Q04759); assay: Inhibition of human PKC at 20 uM; type: protein assay
LoVo [2] = assay: Antitumor activity against human Lovo cells xenografted CD1 nude mouse assessed as T/C ratio at 100 mg/kg, ip administered 3 times per day at 8 hrs intervals for 5 days relative to control; type: functional; settings: time 5 day
LoVo [3] = assay: Cytotoxicity against p53 wild-type human LoVo cells assessed as inhibition of cell proliferation incubated for 72 hrs by MTT assay; type: functional, cell-based
LoVo [4] = assay: Induction of cell death in human LoVo cells assessed as sub-G1 phase of the cell cycle at 20 uM incubated for 24 hrs by TUNEL staining based flow cytometry analysis; type: functional
LoVo [5] = assay: Antitumor activity against human Lovo cells xenografted CD1 nude mouse assessed as low tumor volume at 100 mg/kg, ip administered 3 times per day at 8 hrs intervals for 24 days; type: functional, organism-based; settings: time 24.0 day
[6] = target: cAMP-dependent protein kinase (PKA) (Homo sapiens) (UniProt P22694+P17612+P22612); assay: Inhibition of human PKA at 20 uM; type: protein assay
LoVo [7] = assay: Antitumor activity against human Lovo cells xenografted CD1 nude mouse assessed as reduction in tumor volume at 100 mg/kg, ip administered 3 times per day at 8 hrs intervals for 5 days relative to control; type: functional; design: scale not given: the % may be the effect or the level left; settings: time 5 day
MIA PaCa-2 [8] = assay: Cytotoxicity against human MIA PaCa-2 cells assessed as inhibition of cell proliferation incubated for 72 hrs by MTT assay; type: functional, cell-based; settings: MIA PaCa-2, 72 h
MES-SA/Dx5 [9] = assay: Antitumor activity against human MES-SA/Dx5 cells xenografted CD1 nude mouse assessed as time for tumor growth delay at 500 mg/kg, po administered 3 times per day at 8 hrs intervals for 4 days; type: functional; settings: time 4 day
DU-145 = assay: Cytotoxicity against p53 mutant human DU-145 cells assessed as inhibition of cell proliferation incubated for 72 hrs by MTT assay; type: functional, cell-based; settings: DU-145, 72 h
NCI-H69 = assay: Cytotoxicity against p53 mutant human NCI-H69 cells assessed as inhibition of cell proliferation incubated for 72 hrs by MTT assay; type: functional, cell-based; settings: NCI-H69, 72 h
LoVo [10] = assay: Antitumor activity against human Lovo cells xenografted CD1 nude mouse assessed as relative tumor volume at 100 mg/kg, ip administered 3 times per day at 8 hrs intervals for 5 days; type: functional; settings: time 5 day
ACHN = assay: Cytotoxicity against p53 wild-type human ACHN cells assessed as inhibition of cell proliferation incubated for 72 hrs by MTT assay; type: functional, cell-based
HepG2 = assay: Cytotoxicity against p53 wild-type human HepG2 cells assessed as inhibition of cell proliferation incubated for 72 hrs by MTT assay; type: functional, cell-based; settings: HepG2, 72 h
MES-SA = assay: Cytotoxicity against human MES-SA cells assessed as inhibition of cell proliferation incubated for 72 hrs by MTT assay; type: functional, cell-based
MES-SA/Dx5 [11] = assay: Antitumor activity against human MES-SA/Dx5 cells xenografted CD1 nude mouse assessed as tumor volume at 500 mg/kg, po administered 3 times per day at 8 hrs intervals and measured on 11 day; type: functional, organism-based
HT-1376 = assay: Cytotoxicity against p53 mutant human HT-1376 cells assessed as inhibition of cell proliferation incubated for 72 hrs by MTT assay; type: functional, cell-based; settings: HT-1376, 72 h
MES-SA/Dx5 [12] = assay: Antitumor activity against human MES-SA/Dx5 cells xenografted CD1 nude mouse assessed as tumor volume at 500 mg/kg, po administered 3 times per day at 8 hrs intervals and measured on 4 day; type: functional, organism-based
LoVo [13] = assay: Induction of cell death in human LoVo cells assessed as decrease in total cell numbers at 20 uM incubated for 48 hrs by TUNEL staining based flow cytometry analysis; type: functional
NCI-H460 = assay: Cytotoxicity against p53 wild-type human NCI-H460 cells assessed as inhibition of cell proliferation incubated for 72 hrs by MTT assay; type: functional, cell-based; settings: NCI-H460, 72 h
MES-SA/Dx5 [14] = assay: Antitumor activity against human MES-SA/Dx5 cells xenografted CD1 nude mouse assessed as reduction in tumor volume at 200 mg/kg, po administered 3 times per day at 8 hrs intervals and measured upto 16 days; type: functional, organism-based; settings: time <= 16.0 day
LoVo [15] = assay: Induction of cell death in human LoVo cells assessed as S phase of the cell cycle at 20 uM incubated for 24 hrs by TUNEL staining based flow cytometry analysis; type: functional
HCT-15 = assay: Cytotoxicity against p53 mutant human HCT-15 cells assessed as inhibition of cell proliferation incubated for 72 hrs by MTT assay; type: functional, cell-based; settings: HCT-15, 72 h
LoVo [16] = assay: Antitumor activity against human Lovo cells xenografted CD1 nude mouse assessed as low tumor volume at 100 mg/kg, ip administered 3 times per day at 8 hrs intervals for 19 days; type: functional, organism-based; settings: time 19.0 day
MIA PaCa-2 [17] = assay: Cytotoxicity against p53 mutant human MIA PaCa-2 cells assessed as inhibition of cell proliferation incubated for 72 hrs by MTT assay; type: functional, cell-based; settings: MIA PaCa-2, 72 h
MES-SA/Dx5 [18] = assay: Antitumor activity against human MES-SA/Dx5 cells xenografted CD1 nude mouse assessed as T/C ratio at 500 mg/kg, po administered 3 times per day at 8 hrs intervals and measured at 11 day relative to control; type: functional
LoVo [19] = assay: Antitumor activity against human Lovo cells xenografted CD1 nude mouse assessed as low tumor volume at 100 mg/kg, ip administered 3 times per day at 8 hrs intervals for 32 days; type: functional, organism-based; settings: time 32.0 day
A498 = assay: Cytotoxicity against p53 wild-type human A498 cells assessed as inhibition of cell proliferation incubated for 72 hrs by MTT assay; type: functional, cell-based; settings: A498, 72 h
MES-SA/Dx5 [20] = assay: Cytotoxicity against human MES-SA/Dx5 cells assessed as inhibition of cell proliferation incubated for 72 hrs by MTT assay; type: functional, cell-based; settings: MES-SA/Dx5, 72 h
LoVo [21] = assay: Induction of cell death in human LoVo cells assessed as increase in total cell numbers at 20 uM incubated upto 24 hrs by TUNEL staining based flow cytometry analysis; type: functional
LoVo [22] = assay: Induction of cell death in human LoVo cells assessed as G2/M phase of the cell cycle at 20 uM incubated for 24 hrs by TUNEL staining based flow cytometry analysis; type: functional
ChaGo-K-1 = assay: Cytotoxicity against human ChaGo-K-1 cells assessed as inhibition of cell proliferation incubated for 72 hrs by MTT assay; type: functional, cell-based; settings: ChaGo-K-1, 72 h
MES-SA/Dx5 [23] = assay: Antitumor activity against human MES-SA/Dx5 cells xenografted CD1 nude mouse assessed as tumor volume at 500 mg/kg, po administered 3 times per day at 8 hrs intervals and measured on 7 day; type: functional, organism-based
[24] = Cytotoxicity against human HS27 cells assessed as inhibition of cell proliferation incubated for 72 hrs by MTT assay; type: toxicity, cell-based
[25] = target: Mitogen-activated protein kinase 14 (Homo sapiens) (UniProt Q16539); assay: Inhibition of human SAPK2A using myelin as substrate at 20 uM in presence of gamma-32P-ATP by scintillation counter analysis
Mitogen-activated protein kinase 14 (Homo sapiens), sequence (Q16539 whole entry): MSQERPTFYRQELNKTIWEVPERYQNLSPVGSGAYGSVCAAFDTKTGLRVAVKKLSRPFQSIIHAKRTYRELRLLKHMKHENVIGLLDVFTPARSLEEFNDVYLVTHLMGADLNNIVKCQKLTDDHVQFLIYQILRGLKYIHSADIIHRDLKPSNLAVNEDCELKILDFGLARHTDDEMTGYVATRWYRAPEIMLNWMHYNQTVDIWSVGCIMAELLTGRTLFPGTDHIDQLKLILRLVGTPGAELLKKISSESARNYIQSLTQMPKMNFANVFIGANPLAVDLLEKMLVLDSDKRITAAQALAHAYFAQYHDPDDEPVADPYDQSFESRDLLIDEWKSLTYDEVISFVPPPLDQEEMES

MES-SA/Dx5 [26] = assay: Antitumor activity against human MES-SA/Dx5 cells xenografted CD1 nude mouse assessed as T/C ratio at 200 mg/kg, po administered 3 times per day at 8 hrs intervals for 10 days and measured at day 11 relative to control; type: functional; settings: time 11 day
LoVo [27] = assay: Induction of cell death in human LoVo cells assessed as G1 phase of the cell cycle at 20 uM incubated for 24 hrs by TUNEL staining based flow cytometry analysis; type: functional
LoVo [28] = assay: Induction of cell death in human LoVo cells assessed as increase in the number of cells with a sub-G1 DNA content at 20 uM incubated for 24 hrs by PI staining based flow cytometry analysis; type: functional
MIA PaCa-2 [29] = assay: Cytotoxicity against p53 wild-type human MIA PaCa-2 cells assessed as inhibition of cell proliferation incubated for 72 hrs by MTT assay; type: functional, cell-based; settings: MIA PaCa-2, 72 h
MES-SA/Dx5 [30] = assay: Antitumor activity against human MES-SA/Dx5 cells xenografted CD1 nude mouse assessed as time for tumor growth delay at 200 mg/kg, po administered 3 times per day at 8 hrs intervals for 10 days; type: functional; settings: time 10 day
A549 = assay: Cytotoxicity against p53 wild-type human A549 cells assessed as inhibition of cell proliferation incubated for 72 hrs by MTT assay; type: functional, cell-based; settings: A549, 72 h
[31] = Cytotoxicity against human IMR-90 cells assessed as inhibition of cell proliferation incubated for 72 hrs by MTT assay; type: toxicity, cell-based
LoVo [32] = assay: Antitumor activity against human Lovo cells xenografted CD1 nude mouse assessed as time for tumor growth delay at 100 mg/kg, ip administered 3 times per day at 8 hrs intervals for 5 days; type: functional; settings: time 5 day
HT-29 = assay: Cytotoxicity against p53 mutant human HT-29 cells assessed as inhibition of cell proliferation incubated for 72 hrs by MTT assay; type: functional, cell-based; settings: HT-29, 72 h
HCT-116 = assay: cells; settings: Homo sapiens, HCT-116, 72 h
LoVo [33] = assay: Induction of cell death in human LoVo cells assessed as accumulation of cells in the cell cycle at 20 uM incubated for 24 hrs by PI staining based flow cytometry analysis; type: functional
LoVo [34] = assay: Antitumor activity against human Lovo cells xenografted CD1 nude mouse assessed as low tumor volume at 100 mg/kg, ip administered 3 times per day at 8 hrs intervals for 16 days; type: functional, organism-based; settings: time 16.0 day
LoVo [35] = assay: Induction of cell death in human LoVo cells assessed as total cell numbers at 20 uM incubated after 8 hrs by TUNEL staining based flow cytometry analysis; type: functional

**Q.** For `CC[C@H](CO)Nc1nc(NCc2ccccc2)c2ncn(C(C)C)c2n1` [SELICICLIB], which inhibition [1] is on record?
**A.** inactive

**Q.** What about the T/C (LoVo [2]) of the same molecule?
**A.** 58.3%

**Q.** What about the IC50 (LoVo [3]) of the same molecule?
**A.** 9.3 µM

**Q.** What about the Activity (LoVo [4]) of the same molecule?
**A.** Active

**Q.** What about the Activity (LoVo [5]) of the same molecule?
**A.** Active

**Q.** And the inhibition [6]?
**A.** inactive

**Q.** And the Activity (LoVo [7])?
**A.** 44.8%

**Q.** And the IC50 (MIA PaCa-2 [8])?
**A.** 15.2 µM

**Q.** What about the Time (MES-SA/Dx5 [9]) of the same molecule?
**A.** 1.7 days

**Q.** What about the IC50 (DU-145) of the same molecule?
**A.** 18.8 µM

**Q.** What about the IC50 (NCI-H69) of the same molecule?
**A.** 26 µM

**Q.** What about the Activity (LoVo [10]) of the same molecule?
**A.** 4.8

**Q.** And the IC50 (ACHN)?
**A.** 11.9 µM

**Q.** And the IC50 (HepG2)?
**A.** 11.3 µM

**Q.** And the IC50 (MES-SA)?
**A.** 11.9 µM

**Q.** What about the Activity (MES-SA/Dx5 [11]) of the same molecule?
**A.** Active

**Q.** And the IC50 (HT-1376)?
**A.** 18.4 µM

**Q.** What about the Activity (MES-SA/Dx5 [12]) of the same molecule?
**A.** Active

**Q.** What about the Activity (LoVo [13]) of the same molecule?
**A.** Active

**Q.** What about the IC50 (NCI-H460) of the same molecule?
**A.** 13.1 µM

**Q.** What about the Activity (MES-SA/Dx5 [14]) of the same molecule?
**A.** inactive

**Q.** What about the Activity (LoVo [15]) of the same molecule?
**A.** Active

**Q.** What about the IC50 (HCT-15) of the same molecule?
**A.** 18.3 µM

**Q.** What about the Activity (LoVo [16]) of the same molecule?
**A.** Active

**Q.** What about the IC50 (MIA PaCa-2 [17]) of the same molecule?
**A.** 13.9 µM

**Q.** And the T/C (MES-SA/Dx5 [18])?
**A.** 47.3%

**Q.** And the Activity (LoVo [19])?
**A.** Active

**Q.** And the IC50 (A498)?
**A.** 13.2 µM

**Q.** What about the IC50 (MES-SA/Dx5 [20]) of the same molecule?
**A.** 7.9 µM

**Q.** What about the Activity (LoVo [21]) of the same molecule?
**A.** Active

**Q.** And the Activity (LoVo [22])?
**A.** Active

**Q.** What about the IC50 (ChaGo-K-1) of the same molecule?
**A.** 30.2 µM

**Q.** And the Activity (MES-SA/Dx5 [23])?
**A.** Active

**Q.** And the IC50 at 72 h [24]?
**A.** 22.2 µM

**Q.** And the inhibition [25]?
**A.** inactive

**Q.** What about the Activity (MES-SA/Dx5 [26]) of the same molecule?
**A.** 85.7%

**Q.** And the Activity (LoVo [27])?
**A.** Active

**Q.** What about the Activity (LoVo [28]) of the same molecule?
**A.** Active

**Q.** And the IC50 (MIA PaCa-2 [29])?
**A.** 12 µM

**Q.** What about the Time (MES-SA/Dx5 [30]) of the same molecule?
**A.** 1.3 days

**Q.** What about the IC50 (A549) of the same molecule?
**A.** 15.9 µM

**Q.** And the IC50 at 72 h [31]?
**A.** > 100 µM

**Q.** And the Time (LoVo [32])?
**A.** 1.4 days

**Q.** What about the IC50 (HT-29) of the same molecule?
**A.** 14.6 µM

**Q.** What about the IC50 (HCT-116) of the same molecule?
**A.** 10.7 µM

**Q.** What about the Activity (LoVo [33]) of the same molecule?
**A.** inactive

**Q.** What about the Activity (LoVo [34]) of the same molecule?
**A.** Active

**Q.** And the Activity (LoVo [35])?
**A.** Active

Source: ChEMBL document CHEMBL5715935 (Int J Cancer, 2002)
